From PMC7217150, “Synthesis, Modification, and Biological Evaluation of a Library of Novel Water‐Soluble Thiopyridone‐Based Organometallic Complexes and Their Unexpected (Biological) Behavior” (Chemistry (Weinheim an Der Bergstrasse, Germany), 2020)

What was measured:
Type in all cases: cell-based, human
[1] = system: A549; assay: MTT cytotoxicity assay, monolayer culture; settings: exposure time 96 h, means ± SDs
Description: (§1) A549 (non‐small cell lung carcinoma), SW480 and HCT‐116 (both colon carcinoma) were kindly provided by Brigitte Marian, Institute of Cancer Research, Department of Medicine I, Medical University of Vienna, Austria. The cell line CH1/PA‐1 (ovarian teratocarcinoma) was kindly provided by Lloyd R. Kelland (CRC Centre for Cancer Therapeutics, Institute of Cancer Research, Sutton, UK). All cell culture media (including supplements) and reagents were obtained from Sigma–Aldrich, and all plasticware from StarLab, unless indicated otherwise.

[2] = system: CH1/PA‐1; assay: MTT cytotoxicity assay, monolayer culture; settings: CH1/PA‐1, MTT assay, exposure time 96 h, means ± SDs
Description: as §1

[3] = system: SW480; assay: MTT cytotoxicity assay, monolayer culture; settings: for IC50: SW480, MTT assay, exposure time 96 h, means ± SDs
Description: as §1

[4] = system: CH1/PA‐1; assay: Cell cycle distribution, flow cytometry with propidium iodide; settings: for Cell cycle distribution G1, % / Cell cycle distribution G2/M, % / Cell cycle distribution S, %: 24 h, mean ± SD; for Relative change in cell cycle distribution G1, % / Relative change in cell cycle distribution G2/M, % / Relative change in cell cycle distribution S, %: difference to untreated control
Description: (§2) The influence of two ligands, as well as seven complexes on cell cycle distribution was tested in two of the cancer cell lines (SW480, CH1/PA‐1) by means of flow cytometry. The cell cycle distribution (G1, S, G2/M phase in %; Table S37) was investigated upon DNA staining with propidium iodide.
(§3) CH1/PA‐1 and SW480 cells were harvested by trypsinization, 8×10^4 and 1.2×10^5 cells per well were seeded into 12‐well plates, respectively. The cells were allowed to attach and resume proliferation for 24 h after the seeding. […] After continuous exposure for 24 h at 37 °C and under 5 % CO2, the cells were harvested by trypsinization and centrifuged at 300 g for 3 min. The cells were washed with PBS (1 mL) and resuspended in propidium iodine (PI) containing HSF buffer (600 μL; 0.1 % Triton X‐100, 0.1 % sodium citrate, 50 μg mL^−1 PI in PBS). After incubation overnight at 4 °C in the dark, 5×10^3 cells were measured by flow cytometry with a Millipore Guava easyCyte 8HT instrument (Luminex, USA). Data were evaluated by means of FlowJo software (Tree Star) using Watson Pragmatic algorithms.60 The fitting of the curve was chosen to keep the root mean square error between 1.0 and 2.0, alongside with good fitting visual model.

[5] = system: SW480; assay: as above; settings: for Cell cycle distribution G1, % / Cell cycle distribution G2/M, % / Cell cycle distribution S, %: 24 h, mean ± SD; for Relative change in cell cycle distribution G1, % / Relative change in cell cycle distribution G2/M, % / Relative change in cell cycle distribution S, %: difference to untreated control
Description: as §2, §3

Cc1c(O)c(=S)ccn1-c1ccccc1 [Compound 2 b, 3‐hydroxy‐2‐methyl‐1‐phenylpyridine‐4(1H)‐thione]
IC50 ([1]; Homo sapiens): 1600 ± 1200 nM | IC50 ([2]; Homo sapiens): 520 ± 50 nM | IC50 ([3]; Homo sapiens): 520 ± 30 nM

Cc1c(O)c(=S)ccn1Cc1ccccc1 [Compound 2 c, 3‐hydroxy‐2‐methyl‐1‐benzylpyridine‐4(1H)‐thione]
IC50 ([1]; Homo sapiens): 790 ± 120 nM | IC50 ([3]; Homo sapiens): 280 ± 40 nM | Cell cycle distribution G1, % ([4]; CH1/PA-1, 2.5 µM): 43 ± 16% | Cell cycle distribution G2/M, % ([4]; CH1/PA-1, 2.5 µM): 19 ± 9% | Cell cycle distribution S, % ([4]; CH1/PA-1, 2.5 µM): 37 ± 5% | Relative change in cell cycle distribution G1, % ([4]; CH1/PA-1, 2.5 µM): 3% | Relative change in cell cycle distribution G2/M, % ([4]; CH1/PA-1, 2.5 µM): -5% | Relative change in cell cycle distribution S, % ([4]; CH1/PA-1, 2.5 µM): 1% | Cell cycle distribution G1, % ([4]; CH1/PA-1, 5 µM): 31 ± 5% | Cell cycle distribution G2/M, % ([4]; CH1/PA-1, 5 µM): 32 ± 4% | Cell cycle distribution S, % ([4]; CH1/PA-1, 5 µM): 37 ± 2% | Relative change in cell cycle distribution G1, % ([4]; CH1/PA-1, 5 µM): -9% | Relative change in cell cycle distribution G2/M, % ([4]; CH1/PA-1, 5 µM): 8% | Relative change in cell cycle distribution S, % ([4]; CH1/PA-1, 5 µM): 1% | Cell cycle distribution G1, % ([4]; CH1/PA-1, 10 µM): 31 ± 6% | Cell cycle distribution G2/M, % ([4]; CH1/PA-1, 10 µM): 26 ± 10% | Cell cycle distribution S, % ([4]; CH1/PA-1, 10 µM): 43 ± 8% | Relative change in cell cycle distribution G1, % ([4]; CH1/PA-1, 10 µM): -9% | Relative change in cell cycle distribution G2/M, % ([4]; CH1/PA-1, 10 µM): 2% | Relative change in cell cycle distribution S, % ([4]; CH1/PA-1, 10 µM): 7% | effect on cell cycle distribution, in words ([4]; CH1/PA‐1 cells): little effect | decrease in G1 phase ([4]; CH1/PA‐1 cells, 10 μM): 9% | Cell cycle distribution G1, % ([5]; SW480, 5 µM): 30 ± 1% | Cell cycle distribution G2/M, % ([5]; SW480, 5 µM): 31 ± 3% | Cell cycle distribution S, % ([5]; SW480, 5 µM): 39 ± 2% | Relative change in cell cycle distribution G1, % ([5]; SW480, 5 µM): -18% | Relative change in cell cycle distribution G2/M, % ([5]; SW480, 5 µM): 12% | Relative change in cell cycle distribution S, % ([5]; SW480, 5 µM): 6% | Cell cycle distribution G1, % ([5]; SW480, 10 µM): 27 ± 3% | Cell cycle distribution G2/M, % ([5]; SW480, 10 µM): 27 ± 3% | Cell cycle distribution S, % ([5]; SW480, 10 µM): 45 ± 2% | Relative change in cell cycle distribution G1, % ([5]; SW480, 10 µM): -21% | Relative change in cell cycle distribution G2/M, % ([5]; SW480, 10 µM): 8% | Relative change in cell cycle distribution S, % ([5]; SW480, 10 µM): 12% | Cell cycle distribution G1, % ([5]; SW480, 20 µM): 34 ± 5% | Cell cycle distribution G2/M, % ([5]; SW480, 20 µM): 17 ± 3% | Cell cycle distribution S, % ([5]; SW480, 20 µM): 49 ± 1% | Relative change in cell cycle distribution G1, % ([5]; SW480, 20 µM): -14% | Relative change in cell cycle distribution G2/M, % ([5]; SW480, 20 µM): -2% | Relative change in cell cycle distribution S, % ([5]; SW480, 20 µM): 16% | decrease in G1 ([5]; SW480 cells, 2.5 μM): 18%

Cc1c(O)c(=S)ccn1-c1cccc2ccccc12 [Compound 2 d, 3‐hydroxy‐2‐methyl‐1‐(naphthalene‐1‐yl)pyridine‐4(1H)‐thione]
IC50 ([1]; Homo sapiens): 1600 ± 100 nM | IC50 ([2]; Homo sapiens): 620 ± 80 nM | IC50 ([3]; Homo sapiens): 350 ± 20 nM

Cc1c([O-])c(=S)ccn1-c1ccccc1.Cc1ccc(C(C)C)cc1.[Cl-].[Ru+2] [Compound 3 b, Chlorido[2‐methyl‐3‐(oxo‐κO)‐1‐phenylpyridine‐4(1H)‐thionato‐κS](η^6‐p‐cymene)ruthenium(II)]
IC50 [1]: 2400 ± 800 nM | IC50 [2]: 940 ± 80 nM | IC50 [3]: 2800 ± 100 nM

Cc1c([O-])c(=S)ccn1-c1cccc2ccccc12.Cc1ccc(C(C)C)cc1.[Cl-].[Ru+2] [Compound 3 d, Chlorido[2‐methyl‐1‐(naphthalene‐1‐yl)‐3‐(oxo‐κO)‐pyridine‐4(1H)‐thionato‐κS](η^6‐p‐cymene)ruthenium(II)]
IC50 [1]: 2100 ± 300 nM | IC50 [2]: 1600 ± 300 nM | IC50 [3]: 4000 ± 300 nM

Cc1c([O-])c(=S)ccn1C.Cc1ccc(C(C)C)cc1.[Cl-].[Os+2] [Compound 4 a, [Chlorido[1,2‐dimethyl‐3‐(oxo‐κO)‐pyridine‐4(1H)‐thionato‐κS](η^6‐p‐cymene)osmium(II)]]
IC50 [1]: > 200000 nM | IC50 [2]: 112000 ± 27000 nM | IC50 [3]: > 200000 nM

Cc1c([O-])c(=S)ccn1-c1cccc2ccccc12.Cc1ccc(C(C)C)cc1.[Cl-].[Os+2] [Compound 4 d, Chlorido[2‐methyl‐1‐(naphthalene‐1‐yl)‐3‐(oxo‐κO)‐pyridine‐4(1H)‐thionato‐κS](η^6‐p‐cymene)osmium(II)]
IC50 [1]: 2400 ± 300 nM | IC50 [2]: 1300 ± 300 nM | IC50 [3]: 7700 ± 300 nM | IC50 relative to the osmium thiomaltol complex ([3]; SW480 cells): four times higher

COc1cc([C@@H]2c3cc4c(cc3[C@@H](O[C@@H]3O[C@@H]5CO[C@@H](C)O[C@H]5[C@H](O)[C@H]3O)[C@H]3COC(=O)[C@H]23)OCO4)cc(OC)c1O [Etoposide, reference compound]
Cell cycle distribution G1, % ([4]; CH1/PA-1, 0.25 µM): 8 ± 5% | Cell cycle distribution S, % ([4]; CH1/PA-1, 0.25 µM): 15 ± 4% | Relative change in cell cycle distribution G1, % ([4]; CH1/PA-1, 0.25 µM): -32% | Relative change in cell cycle distribution G2/M, % ([4]; CH1/PA-1, 0.25 µM): 53% | Relative change in cell cycle distribution S, % ([4]; CH1/PA-1, 0.25 µM): -21% | Cell cycle distribution G1, % ([4]; CH1/PA-1, 0.5 µM): 4 ± 1% | Cell cycle distribution G2/M, % ([4]; CH1/PA-1, 0.5 µM): 85 ± 5% | Cell cycle distribution S, % ([4]; CH1/PA-1, 0.5 µM): 10 ± 3% | Relative change in cell cycle distribution G1, % ([4]; CH1/PA-1, 0.5 µM): -36% | Relative change in cell cycle distribution G2/M, % ([4]; CH1/PA-1, 0.5 µM): 61% | Cell cycle distribution G1, % ([4]; CH1/PA-1, 1 µM): 3 ± 3% | Cell cycle distribution G2/M, % ([4]; CH1/PA-1, 1 µM): 87 ± 6% | Cell cycle distribution S, % ([4]; CH1/PA-1, 1 µM): 10 ± 5% | Relative change in cell cycle distribution G1, % ([4]; CH1/PA-1, 1 µM): -37% | Relative change in cell cycle distribution G2/M, % ([4]; CH1/PA-1, 1 µM): 63% | Cell cycle distribution G1, % ([5]; SW480, 0.25 µM): 9 ± 2% | Cell cycle distribution G2/M, % ([5]; SW480, 0.25 µM): 65 ± 10% | Cell cycle distribution S, % ([5]; SW480, 0.25 µM): 26 ± 4% | Relative change in cell cycle distribution G1, % ([5]; SW480, 0.25 µM): -39% | Relative change in cell cycle distribution G2/M, % ([5]; SW480, 0.25 µM): 46% | Relative change in cell cycle distribution S, % ([5]; SW480, 0.25 µM): -7% | Cell cycle distribution G1, % ([5]; SW480, 0.5 µM): 3 ± 1% | Cell cycle distribution G2/M, % ([5]; SW480, 0.5 µM): 78 ± 6% | Cell cycle distribution S, % ([5]; SW480, 0.5 µM): 19 ± 7% | Relative change in cell cycle distribution G1, % ([5]; SW480, 0.5 µM): -45% | Relative change in cell cycle distribution G2/M, % ([5]; SW480, 0.5 µM): 59% | Relative change in cell cycle distribution S, % ([5]; SW480, 0.5 µM): -14% | Cell cycle distribution G1, % ([5]; SW480, 1 µM): 6 ± 4% | Cell cycle distribution G2/M, % ([5]; SW480, 1 µM): 65 ± 10% | Cell cycle distribution S, % ([5]; SW480, 1 µM): 30 ± 15% | Relative change in cell cycle distribution G1, % ([5]; SW480, 1 µM): -42% | Relative change in cell cycle distribution G2/M, % ([5]; SW480, 1 µM): 46% | Relative change in cell cycle distribution S, % ([5]; SW480, 1 µM): -3%

Chlorido[1‐(naphthalene‐1‐yl)‐2‐methyl‐3‐oxo‐κO‐pyridine‐4(1H)‐thionato‐κS](η^5‐1,2,3,4,5‐pentamethylcyclopentadienyl)iridium(III) [Compound 6 d]
IC50 [1]: 2000 ± 400 nM | IC50 [2]: 680 ± 20 nM | IC50 [3]: 800 ± 150 nM

Chlorido[1‐phenyl‐2‐methyl‐3‐oxo‐κO‐pyridine‐4(1H)‐thionato‐κS](η^5‐1,2,3,4,5‐pentamethylcyclopentadienyl)iridium(III) [Compound 6 b]
IC50 [1]: 2200 ± 800 nM | IC50 [2]: 820 ± 50 nM | IC50 [3]: 590 ± 80 nM
